Test results from the NIST ThermoML archive (doi:10.1021/je900777q).
Values joined by “and” are separate entries in the source; they are usually repeats but may differ in a detail not shown here. Equal entries are not always repeated.

What was measured:
[1] = Molar enthalpy of transition or fusion; conditions: Crystal; DSC
[2] = Crystal; for vapor or sublimation pressure: Calculated from knudsen effusion weight loss; for Normal melting temperature: DTA

O=C(O)c1cc(O)cc(O)c1 [3,5-dihydroxybenzoic acid]
Conditions | Molar enthalpy of transition or fusion [kJ/mol] | Normal melting temperature [°C]
[1] | 38.3 | –
[2] | – | 235.2

[2]
Conditions | vapor or sublimation pressure
407.36 K | 9.8e-05 kPa and 9.7e-05 kPa
410.25 K | 0.00013 kPa and 0.000129 kPa
413.16 K | 0.000176 kPa and 0.000179 kPa and 0.000175 kPa
416.13 K | 0.000237 kPa and 0.000234 kPa and 0.000238 kPa
419.21 K | 0.000305 kPa and 0.00031 kPa and 0.000311 kPa
422.2 K | 0.000407 kPa and 0.000409 kPa and 0.000412 kPa
425.23 K | 0.000561 kPa and 0.000563 kPa

O=C(O)c1ccc(O)cc1O [2,4-dihydroxybenzoic acid]
[2]
Conditions | vapor or sublimation pressure
376.22 K | 0.000198 kPa and 0.000192 kPa and 0.000195 kPa
377.32 K | 0.000224 kPa and 0.000217 kPa and 0.00022 kPa
379.13 K | 0.000269 kPa and 0.00026 kPa and 0.000264 kPa
381.15 K | 0.000315 kPa and 0.000319 kPa and 0.000332 kPa
383.13 K | 0.000399 kPa and 0.000388 kPa and 0.00039 kPa
385.12 K | 0.000501 kPa and 0.000489 kPa and 0.000493 kPa
387.17 K | 0.000613 kPa and 0.000591 kPa and 0.000593 kPa
389.35 K | 0.000762 kPa and 0.000732 kPa and 0.000741 kPa
391.3 K | 0.000916 kPa and 0.000884 kPa and 0.000893 kPa
392.11 K | 0.000988 kPa and 0.000961 kPa and 0.000955 kPa

O=C(O)c1ccc(O)c(O)c1 [3,4-dihydroxybenzoic acid]
[2]
Conditions | vapor or sublimation pressure
387.12 K | 8.9e-05 kPa and 8.7e-05 kPa and 8.6e-05 kPa
391.31 K | 0.000132 kPa and 0.000133 kPa
393.33 K | 0.000166 kPa and 0.000164 kPa and 0.000165 kPa
395.2 K | 0.0002 kPa and 0.000202 kPa and 0.000201 kPa
397.32 K | 0.000249 kPa and 0.000253 kPa and 0.00025 kPa
401.25 K | 0.000367 kPa and 0.000365 kPa
403.26 K | 0.000451 kPa and 0.000452 kPa and 0.00045 kPa

O=C(O)c1cccc(O)c1O [2,3-dihydroxybenzoic acid]
Conditions | Molar enthalpy of transition or fusion [kJ/mol] | Normal melting temperature [°C]
[1] | 31.9 | –
[2] | – | 203.2

[2]
Conditions | vapor or sublimation pressure
345.22 K | 0.000158 kPa and 0.000159 kPa and 0.000157 kPa
347.21 K | 0.000201 kPa and 0.000196 kPa and 0.000197 kPa
349.23 K | 0.00025 kPa and 0.000248 kPa and 0.000246 kPa
351.19 K | 0.000308 kPa and 0.00031 kPa
353.21 K | 0.00038 kPa and 0.000377 kPa
355.17 K | 0.000468 kPa and 0.000466 kPa
357.2 K | 0.000569 kPa and 0.000565 kPa and 0.000564 kPa
359.2 K | 0.000716 kPa and 0.000708 kPa and 0.000711 kPa
361.21 K | 0.000867 kPa and 0.000857 kPa and 0.000861 kPa
363.18 K | 0.001039 kPa and 0.001029 kPa

O=C(O)c1c(O)cccc1O [2,6-dihydroxybenzoic acid]
[2]
Conditions | vapor or sublimation pressure
347.14 K | 0.000138 kPa and 0.000131 kPa and 0.000133 kPa
349.32 K | 0.000171 kPa and 0.000173 kPa
351.02 K | 0.000204 kPa and 0.000208 kPa
353.26 K | 0.000255 kPa and 0.000249 kPa
355.35 K | 0.000323 kPa and 0.000336 kPa
357.2 K | 0.000401 kPa and 0.000391 kPa and 0.000386 kPa
359.28 K | 0.000491 kPa and 0.000477 kPa and 0.000479 kPa
361.38 K | 0.000609 kPa and 0.00059 kPa and 0.000586 kPa
363.19 K | 0.000713 kPa and 0.000692 kPa and 0.000679 kPa
365.17 K | 0.000881 kPa and 0.000845 kPa and 0.000834 kPa

O=C(O)c1cc(O)ccc1O [2,5-dihydroxybenzoic acid]
Conditions | Molar enthalpy of transition or fusion [kJ/mol] | Normal melting temperature [°C]
[1] | 20.8 | –
[2] | – | 203.1

[2]
Conditions | vapor or sublimation pressure
372.14 K | 0.00015 kPa and 0.000146 kPa and 0.000145 kPa
374.13 K | 0.000192 kPa and 0.000182 kPa and 0.000183 kPa
376.19 K | 0.000231 kPa and 0.000221 kPa
378.15 K | 0.000287 kPa and 0.000299 kPa and 0.000285 kPa
380.3 K | 0.000373 kPa and 0.000356 kPa and 0.000364 kPa
382.22 K | 0.00045 kPa
384.7 K | 0.000572 kPa and 0.000574 kPa
386.12 K | 0.000663 kPa and 0.000649 kPa
388.92 K | 0.000905 kPa and 0.000871 kPa and 0.000866 kPa
